Our source for the IC50 and EC50 values is US7101906B2, “2,3,4-substituted cyclopentanones as therapeutic agents” (Allergan, Inc., priority 2004, dated 2006).

Molecules are shown by their SMILES.

By IC50 is commonly meant the concentration that inhibits the measured activity by half. Low values mean higher potency, high ones lower potency. The term EC50 denotes the concentration at which the effect is half-maximal.

One test has as its target T1, HEP4 (Homo sapiens, UniProt P35408).
T1 construct: expressed in transfected cells; membrane fraction
In words: Radioligand binding, EP4 receptor. The settings on record: competition vs [3H]PGE2 5 nM, HEK-293 cell membranes. As for the experimental part: (§1) HEK-293 cells stably expressing the human or feline FP receptor, or EP1, EP2, or EP4 receptors were washed with TME buffer, scraped from the bottom of the flasks, and homogenized for 30 sec using a Brinkman PT 10/35 polytron. TME buffer was added to achieve a final 40 ml volume in the centrifuge tubes (the composition of TME is 100 mM TRIS base, 20 mM MgCl2, […]; 10N HCl is added to achieve a pH of 7.4).
(§2) The cell homogenate was centrifuged at 19000 r.p.m. for 20 min at 4° C. using a Beckman Ti-60 rotor. The resultant pellet was resuspended in TME buffer to give a final 1 mg/ml protein concentration, as determined by Biorad assay. Radioligand binding competition assays vs. [^3H-]17-phenyl PGF2α (5 nM) were performed in a 100 μl volume for 60 min. Binding reactions were started by adding plasma membrane fraction. The reaction was terminated by the addition of 4 ml ice-cold TRIS-HCl buffer and rapid filtration through glass fiber GF/B filters using a Brandel cell harvester. The filters were washed 3 times with ice-cold buffer and oven dried for one hour. Non-specific binding was determined with 10 uM unlabeled 17-phenyl PGF2α.
[^3H-] PGE2 (5 nM; specific activity 180 Ci mmol) was used as the radioligand for EP receptors. Binding studies employing EP1, EP2, EP3, EP4 were performed in duplicate in at least three separate experiments. A 200 μl assay volume was used. Incubations were for 60 min at 25° C. and were terminated by the addition of 4 ml of ice-cold 50 mM TRIS-HCl, followed by rapid filtration through Whatman GF/B filters and three additional 4 ml washes in a cell harvester (Brandel). Non-specific binding determined with 10^−5M of unlabeled PGE2.

A further test deals with T2, hEP1 (Homo sapiens, UniProt P34995).
T2 construct: expressed in transfected cells
T2 sequence (P34995 1-402): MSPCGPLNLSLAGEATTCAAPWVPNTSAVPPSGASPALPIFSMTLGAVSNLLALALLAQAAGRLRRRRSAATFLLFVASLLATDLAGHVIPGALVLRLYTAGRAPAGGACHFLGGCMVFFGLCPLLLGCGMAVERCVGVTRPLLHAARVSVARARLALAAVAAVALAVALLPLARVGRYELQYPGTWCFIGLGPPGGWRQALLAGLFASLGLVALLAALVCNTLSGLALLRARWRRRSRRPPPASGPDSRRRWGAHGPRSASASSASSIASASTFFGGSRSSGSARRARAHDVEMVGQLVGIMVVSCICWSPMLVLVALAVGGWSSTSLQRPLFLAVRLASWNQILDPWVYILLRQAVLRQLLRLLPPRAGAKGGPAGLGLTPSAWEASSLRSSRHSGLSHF
The experiment in a line: FLIPR calcium signal, hEP1. Conditions: HEK-293(EBNA) cells, read-out: Functional EC50 (nM) HEP1. It counts as cell-based. How it is done: (§3) HEK-293(EBNA) cells, stably expressing one type or subtype of recombinant human prostaglandin receptors (prostaglandin receptors expressed: hDP/Gqs5; hEP1; hEP2/Gqs5; hEP3A/Gqi5; hEP4/Gqs5; hFP; hIP; hTP), were cultured in 100 mm culture dishes in high-glucose DMEM medium containing 10% fetal bovine serum, 2 mM 1-glutamine, 250 μg/ml geneticin (G418) and 200 μg/ml hygromycin B as selection markers, and 100 units/ml penicillin G, 100 μg/ml streptomycin and 0.25 μg/ml amphotericin B.
(§4) Cells were seeded at a density of 5×10^4 cells per well in Biocoat® Poly-D-lysine-coated black-wall, clear-bottom 96-well plates (Becton-Dickinson) and allowed to attach overnight in an incubator at 37° C. Cells were then washed two times with HBSS-HEPES buffer (Hanks Balanced Salt Solution without bicarbonate and phenol red, 20 mM HEPES, pH 7.4) using a Denley Cellwash plate washer (Labsystems). After 45 minutes of dye-loading in the dark, using the calcium-sensitive dye Fluo-4 AM at a final concentration of 2 μM, plates were washed four times with HBSS-HEPES buffer to remove excess dye leaving 100 μl in each well. Plates were re-equilibrated to 37° C. for a few minutes.
(§5) Cells were excited with an Argon laser at 488 nm, and emission was measured through a 510–570 nm bandwidth emission filter (FLIPR™, Molecular Devices, Sunnyvale, Calif.). Drug solution was added in a 50 μl volume to each well to give the desired final concentration. The peak increase in fluorescence intensity was recorded for each well. On each plate, four wells each served as negative (HBSS-HEPES buffer) and positive controls (standard agonists: BW245C (hDP); PGE2 (hEP1; hEP2/Gqs5; hEP3A/Gqi5; hEP4/Gqs5); PGF2α (hFP); carbacyclin (hIP); U-46619 (hTP), depending on receptor). The peak fluorescence change in each drug-containing well was then expressed relative to the controls.
(§6) Compounds were tested in a high-throughput (HTS) or concentration-response (CoRe) format. In the HTS format, forty-four compounds per plate were examined in duplicates at a concentration of 10^−5 M. To generate concentration-response curves, four compounds per plate were tested in duplicates in a concentration range between 10^−5 and 10^−11 M. The duplicate values were averaged. In either, HTS or CoRe format each compound was tested on at least 3 separate plates using cells from different passages to give an n≧3.

In another test the target is T3, hEP3A/Gqi5 (Homo sapiens, UniProt P43115).
T3 construct: expressed in transfected cells
T3 sequence (P43115 1-390): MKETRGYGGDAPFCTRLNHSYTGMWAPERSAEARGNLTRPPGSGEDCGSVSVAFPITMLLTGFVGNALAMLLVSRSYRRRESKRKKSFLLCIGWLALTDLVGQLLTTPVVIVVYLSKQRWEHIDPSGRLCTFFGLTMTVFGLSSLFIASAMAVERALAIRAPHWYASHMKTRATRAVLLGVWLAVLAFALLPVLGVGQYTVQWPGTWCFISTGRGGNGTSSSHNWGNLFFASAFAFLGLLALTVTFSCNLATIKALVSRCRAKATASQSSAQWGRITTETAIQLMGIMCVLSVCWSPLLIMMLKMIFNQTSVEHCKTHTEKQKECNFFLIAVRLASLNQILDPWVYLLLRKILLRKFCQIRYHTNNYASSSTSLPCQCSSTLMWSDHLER
The experiment in a line: FLIPR calcium signal, hEP3A/Gqi5. The format is cell-based. The settings on record: HEK-293(EBNA) cells, read-out: Functional EC50 (nM) HEP3A. As for the experimental part:
as §3, §4, §5, §6

A further test has as its target T4, hEP4/Gqs5 (Homo sapiens, UniProt P35408).
T4 construct: expressed in transfected cells
The experiment in a line: FLIPR calcium signal, hEP4/Gqs5. The format is cell-based. Conditions: HEK-293(EBNA) cells, read-out: Functional EC50 (nM) HEP4. How it is done:
as §3, §4, §5, §6

The target of a further test is T5, HEP2 (Homo sapiens, UniProt P43116).
T5 construct: expressed in transfected cells; membrane fraction
In words: Radioligand binding, EP2 receptor. Conditions: competition vs [3H]PGE2 5 nM, HEK-293 cell membranes. How it is done:
as §1, §2
[^3H-] PGE2 (5 nM; specific activity 180 Ci mmol) was used as the radioligand for EP receptors. […] Non-specific binding determined with 10^−5M of unlabeled PGE2.

Another test deals with T6, hEP2/Gqs5 (Homo sapiens, UniProt P43116).
T6 construct: expressed in transfected cells
The experiment in a line: FLIPR calcium signal, hEP2/Gqs5. It counts as cell-based. Conditions: HEK-293(EBNA) cells, read-out: Functional EC50 (nM) HEP2. How it is done: as §3, §4, §5
Compounds were tested in a high-throughput (HTS) or concentration-response (CoRe) format. […]

For another test, the target named is T7, hTP (Homo sapiens, UniProt P21731).
T7 construct: expressed in transfected cells
T7 sequence (P21731 1-343): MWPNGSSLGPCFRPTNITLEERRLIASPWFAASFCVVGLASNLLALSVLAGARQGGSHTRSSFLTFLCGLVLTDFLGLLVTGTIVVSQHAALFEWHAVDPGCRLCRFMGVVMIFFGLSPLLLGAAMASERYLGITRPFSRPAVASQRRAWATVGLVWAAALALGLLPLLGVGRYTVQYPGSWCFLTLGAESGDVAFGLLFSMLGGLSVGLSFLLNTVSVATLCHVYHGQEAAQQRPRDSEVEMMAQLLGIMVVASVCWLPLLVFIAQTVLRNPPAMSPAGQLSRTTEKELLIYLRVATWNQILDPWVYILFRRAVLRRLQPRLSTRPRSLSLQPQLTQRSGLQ
In words: FLIPR calcium signal, hTP. Conditions: HEK-293(EBNA) cells, read-out: Functional EC50 (nM) HTP. It counts as cell-based. As for the experimental part:
as §3, §4, §5, §6

T6 sequence (P43116 whole entry): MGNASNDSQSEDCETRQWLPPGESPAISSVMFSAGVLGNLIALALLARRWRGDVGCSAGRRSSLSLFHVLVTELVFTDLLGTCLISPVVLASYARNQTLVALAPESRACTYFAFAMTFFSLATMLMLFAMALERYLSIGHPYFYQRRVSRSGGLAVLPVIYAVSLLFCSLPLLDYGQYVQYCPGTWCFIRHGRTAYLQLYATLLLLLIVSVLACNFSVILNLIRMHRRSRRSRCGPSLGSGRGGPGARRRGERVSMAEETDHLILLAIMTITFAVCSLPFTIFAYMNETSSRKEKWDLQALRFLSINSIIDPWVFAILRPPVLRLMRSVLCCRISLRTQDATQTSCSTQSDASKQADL
T1 sequence (P35408 whole entry): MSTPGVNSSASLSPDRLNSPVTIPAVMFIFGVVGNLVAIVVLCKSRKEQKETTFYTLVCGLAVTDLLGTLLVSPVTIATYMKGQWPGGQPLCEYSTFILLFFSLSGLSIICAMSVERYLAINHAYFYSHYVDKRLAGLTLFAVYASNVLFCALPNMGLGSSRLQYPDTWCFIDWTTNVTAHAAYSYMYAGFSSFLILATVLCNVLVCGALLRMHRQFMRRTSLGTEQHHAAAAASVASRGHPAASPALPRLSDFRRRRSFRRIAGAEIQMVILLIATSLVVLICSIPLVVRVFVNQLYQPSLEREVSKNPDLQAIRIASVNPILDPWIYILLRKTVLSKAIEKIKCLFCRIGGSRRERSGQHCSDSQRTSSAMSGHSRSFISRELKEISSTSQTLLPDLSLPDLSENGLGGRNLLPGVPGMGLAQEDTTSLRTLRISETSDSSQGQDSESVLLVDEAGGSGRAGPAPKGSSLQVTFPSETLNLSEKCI
T4 sequence (P35408 whole entry): as above
T5 sequence (P43116 whole entry): as the sequence (P43116 whole entry) above

`C[C@@H]1CC(=O)[C@H](C/C=C\CCCC(=O)O)[C@H]1/C=C/C(O)CCc1sc2ccccc2c1Cl` (some centres unmarked) displayed a half-maximal inhibitory concentration (IC50) on HEP4 of 1800 nM. Moreover, the 50% effective concentration (EC50) on hEP1 was > 10000 nM; at hEP3A/Gqi5, > 10000 nM; at hEP4/Gqs5, 153 nM.

With `COC(=O)CCC/C=C\C[C@H]1C(=O)C[C@@H](C)[C@@H]1/C=C/C(O)CCc1sc2ccccc2c1Cl` (some centres unmarked), the IC50 on HEP4 is > 10000 nM. The concentration giving a half-maximal response (EC50) on hEP4/Gqs5 is > 10000 nM.

With `COC(=O)CCC/C=C\C[C@H]1C(=O)C[C@@H](C(C)C)[C@@H]1/C=C/C(O)CCc1sc2ccccc2c1Cl` (some centres unmarked), the IC50 on HEP4 was > 10000 nM.

Regarding `CC(C)[C@@H]1CC(=O)[C@H](C/C=C\CCCC(=O)O)[C@H]1/C=C/C(O)CCc1sc2ccccc2c1Cl` (some centres unmarked), at HEP4, the 50% inhibitory concentration (IC50) was > 10000 nM. Further, the EC50 at hEP4/Gqs5 was > 10000 nM.

At HEP4, `CC[C@@H]1CC(=O)[C@H](C/C=C\CCCC(=O)O)[C@H]1/C=C/C(O)CCc1sc2ccccc2c1Cl` (some centres unmarked) gave a half-maximal inhibitory concentration (IC50) of 2100 nM. Further, the concentration giving a half-maximal response (EC50) at hEP4/Gqs5 stood at 708 nM.

For `C=C[C@@H]1CC(=O)[C@H](C/C=C\CCCC(=O)O)[C@H]1/C=C/C(O)CCc1sc2ccccc2c1Cl` (some centres unmarked), the half-inhibitory concentration (IC50) on HEP2 is > 10000 nM; on HEP4, 650 nM. Moreover, the EC50 on hEP4/Gqs5 came out at 156 nM.

As for `C=C[C@@H]1CC(=O)[C@H](C/C=C\CCCC(=O)OC)[C@H]1/C=C/C(O)CCc1sc2ccccc2c1Cl` (some centres unmarked), the half-inhibitory concentration (IC50) at HEP4 is > 10000 nM. On hEP4/Gqs5, the EC50 worked out at 1700 nM.

For `CC[C@@H]1CC(=O)[C@H](C/C=C\CCCC(=O)OC)[C@H]1/C=C/C(O)CCc1sc2ccccc2c1Cl` (some centres unmarked), at HEP4, the half-inhibitory concentration (IC50) was > 10000 nM.

Consider `O=C(O)CCC/C=C\C[C@H]1C(=O)C[C@@H](CO)[C@@H]1/C=C/C(O)Cc1cc2ccccc2s1` (single isomer, unassigned) [drawing 36], for which the EC50 at hEP1, at hEP2/Gqs5, at hEP3A/Gqi5, on hEP4/Gqs5 and on hTP was > 10000 nM in each case.

As to `O=C(O)CCC/C=C\C[C@H]1C(=O)C[C@@H](CO)[C@@H]1/C=C/C(O)Cc1cc2ccccc2s1` (single isomer, unassigned) [drawing 37], the EC50 on hEP1 is 9 nM; at hEP2/Gqs5, > 10000 nM; at hEP3A/Gqi5 it was 99 nM; at hEP4/Gqs5, 1770 nM.

Regarding `COC(=O)CCC/C=C\C[C@H]1C(=O)C[C@@H](CO)[C@@H]1/C=C/C(O)CCc1sc2ccccc2c1Cl` (some centres unmarked) [drawing 30], the EC50 at hEP4/Gqs5 was > 10000 nM.

As to `COC(=O)CCC/C=C\C[C@H]1C(=O)C[C@@H](CO)[C@@H]1/C=C/C(O)CCc1sc2ccccc2c1Cl` (some centres unmarked) [drawing 31], the half-maximal effective concentration (EC50) at hEP4/Gqs5 was > 10000 nM.

Regarding `O=C(O)CCC/C=C\C[C@H]1C(=O)C[C@@H](CO)[C@@H]1/C=C/C(O)CCc1sc2ccccc2c1Cl` (some centres unmarked) [drawing 32], the EC50 on hEP4/Gqs5 came out at 1240 nM.

On to `O=C(O)CCC/C=C\C[C@H]1C(=O)C[C@@H](CO)[C@@H]1/C=C/C(O)CCc1sc2ccccc2c1Cl` (some centres unmarked) [drawing 33], for which the EC50 on hEP4/Gqs5 was 1790 nM.

`COC(=O)CCC/C=C\C[C@H]1C(=O)C[C@@H](CO)[C@@H]1/C=C/C(O)Cc1cc2ccccc2s1` (some centres unmarked) [drawing 34]: the EC50 at hEP1, at hEP4/Gqs5 and at hTP was > 10000 nM in each case.

As to `COC(=O)CCC/C=C\C[C@H]1C(=O)C[C@@H](CO)[C@@H]1/C=C/C(O)Cc1cc2ccccc2s1` (some centres unmarked) [drawing 35], the 50% effective concentration (EC50) at hEP1 was > 10000 nM; at hEP2/Gqs5, > 10000 nM; at hEP3A/Gqi5 it was 9000 nM; at hEP4/Gqs5 it was > 10000 nM; on hTP, > 10000 nM.

On to `COC(=O)CCC/C=C\C[C@H]1C(=O)CC[C@@H]1/C=C/C(O)CCc1sc2ccccc2c1Cl` (some centres unmarked) [drawing 38], for which the EC50 on hEP4/Gqs5 was 515 nM.

For the compound `COC(=O)CCC/C=C\C[C@H]1C(=O)CC[C@@H]1/C=C/C(O)CCc1sc2ccccc2c1Cl` (some centres unmarked) [drawing 39], the figures for the EC50 on hEP4/Gqs5 and at hTP were 862 nM and > 10000 nM, respectively.
